Broadly, the Kd is the concentration at which binding is half-saturated.

For one experiment, the target named is T1, SapC (saposin C) (Homo sapiens, UniProt P07602).
T1 sequence (P07602 311-390 limits assumed): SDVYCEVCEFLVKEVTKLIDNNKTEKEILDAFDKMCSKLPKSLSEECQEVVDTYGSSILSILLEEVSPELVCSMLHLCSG
The experiment is described as follows: microscale thermophoresis. It is filed as binding. A general note: MST reads how a fluorescent partner responds to local heating, with and without ligand.

Experiment [1] concerns the target T2, acid β-glucosidase (GCase), Velaglucerase alfa (human, UniProt P04062 40-536, mannosyl-terminated oligosaccharide chains).
T2 sequence (looked up): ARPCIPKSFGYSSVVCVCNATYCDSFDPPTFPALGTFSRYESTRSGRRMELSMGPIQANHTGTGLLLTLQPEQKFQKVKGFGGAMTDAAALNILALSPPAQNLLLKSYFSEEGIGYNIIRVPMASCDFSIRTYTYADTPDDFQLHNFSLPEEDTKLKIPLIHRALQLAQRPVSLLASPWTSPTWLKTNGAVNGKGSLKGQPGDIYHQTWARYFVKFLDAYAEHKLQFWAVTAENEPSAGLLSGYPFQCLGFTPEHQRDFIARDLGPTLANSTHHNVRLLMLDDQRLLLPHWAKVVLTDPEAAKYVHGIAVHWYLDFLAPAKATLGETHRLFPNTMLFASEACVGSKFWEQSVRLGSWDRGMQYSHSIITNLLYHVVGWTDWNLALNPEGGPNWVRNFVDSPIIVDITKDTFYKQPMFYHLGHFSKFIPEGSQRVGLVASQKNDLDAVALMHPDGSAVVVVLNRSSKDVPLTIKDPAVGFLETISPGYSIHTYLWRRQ
The experiment is described as follows: MST.

As for `CCCCCCCC/C=C\CCCCCCCC(=O)OC[C@H](COP(=O)(O)OC[C@H](N)C(=O)O)OC(=O)CCCCCCC/C=C\CCCCCCCC` [DOPS], the Kd on SapC (saposin C) came out at 13.5 ± 1.65 nM.

B1: saposin C (SapC) (natural protein, UniProt P07602 311-390, looked up)
chain: T1 sequence (P07602 311-390 limits assumed)
The molecule B1 yielded a Kd in experiment [1] of 29.4 ± 1.91 nM.

(Values after article PMC7251241 (EBioMedicine, 2020).)
